Results reported in US6562870B1 (priority 1994, dated 2003).
Where two headings read alike, the source gives them in different places.

Experiments:
[1] = tested on: AS283 cells
Procedure: (§1) Both human tumor cell lines were maintained in RPMI 1640 medium plus 10% fetal calf serum. They were seeded in 15-ml rubber-stoppered vials containing 2 μCi of (^14C) glucose and 2 ml of tissue culture media. […] On days 6, 9 and 12, the vials were removed from the incubator and evaluated radiometrically for the amount of ^14CO2 produced. Inhibition of conversion of (^14C) glucose to ^14CO2 is a reliable index of cytotoxicity (Von Hoff et al., Cancer Res. 45:4032-4038, 1985).

[2] = tested on: Raji line lymphoblast-like cells
Procedure: as §1

[3] = tested on: AIDS-associated NHL
Procedure: The daily dose is diluted in 1000 cc of 0.9% Sodium Chloride Injection, USP, or 5% Dextrose Injection, USP, for infusion over 24 hours.

[4] = stability of diluted infusion solutions; type: physicochemical; conditions: in 0.9% Sodium Chloride Injection or 5% Dextrose Injection
[5] = tested on: advanced NHL; conditions: cited from earlier work
[6] = in vivo; cited from earlier work

For `O=[N+]([O-])[O-].O=[N+]([O-])[O-].O=[N+]([O-])[O-].[Ga+3]` [Gallium Nitrate, gallium nitrate], the “% SURVIVAL AS283” value ([1]; final concentration 1 mcg/ml) was 99%, the “% SURVIVAL AS283” value ([1]; final concentration 10 mcg/ml) was 122% and the “% SURVIVAL AS283” value ([1]; final concentration 50 mcg/ml) was 58%. For the same compound, the “% SURVIVAL AS283” value ([1]; final concentration 100 mcg/ml) was 0%, the “% SURVIVAL RAJI” value ([2]; final concentration 1 mcg/ml) was 102% and the “% SURVIVAL RAJI” value ([2]; final concentration 10 mcg/ml) was 114%. The “% SURVIVAL RAJI” value ([2]; final concentration 100 mcg/ml) was 33%, the drug-related adverse effects ([3]; 300 mg/sq m/day for 7 days iv, two courses) was “not accompanied by apparent drug-related adverse effects” and the “size of nodes after first course” value ([3]; 300 mg/sq m/day for 7 days, intravenous infusion, baseline nodes 9.0×9.0 cm and 3.0×2.0 cm) was “decreased in size”. The “infraclavicular node after second course” value ([3]; second course three weeks later, baseline 9.0×9.0 cm) was “not palpable at all”, the “stability of diluted solution” value ([4]; refrigeration (2-8° C.)) was 7 days and the “stability of diluted solution” value ([4]; room temperature (15-30° C.)) was 2 days. The tolerability and efficacy ([5]; HIV negative patients with advanced NHL) was “well tolerated and effective”, the myelosuppression or immunosuppression ([5]; human, in vivo) was “little or no myelosuppression or immunosuppression” and the blood-brain barrier passage [6] was “crosses the blood-brain barrier”.
For `CC(/C=N/NC(=N)N)=N\NC(=N)N` [mitoguazone], the “response to previous treatment” value ([3]; same patient, before gallium nitrate) was “essentially unresponsive”.
